Our source for the IC50 values is patent US20250099478A1, “PLASMA KALLIKREIN INHIBITORS” (Merck Sharp & Dohme LLC, priority 2022, published 2025).

As usually defined, the IC50 is the midpoint of a concentration-inhibition curve.

For this experiment, the target named is T1, Human plasma kallikrein (Homo sapiens, UniProt P03952).
T1 construct: yields a heavy chain (371 amino acids) and a light chain (248 amino acids); purchased Enzyme Research Laboratories
T1 sequence (P03952 391-638 limits assumed): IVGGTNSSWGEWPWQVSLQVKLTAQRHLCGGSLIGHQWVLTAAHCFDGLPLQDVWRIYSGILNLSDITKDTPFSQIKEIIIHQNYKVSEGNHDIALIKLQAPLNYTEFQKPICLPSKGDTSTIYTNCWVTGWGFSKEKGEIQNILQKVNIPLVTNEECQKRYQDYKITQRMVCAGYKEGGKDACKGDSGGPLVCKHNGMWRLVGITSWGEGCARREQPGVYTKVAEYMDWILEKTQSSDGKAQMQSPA
T1 sequence (P03952 20-390 partner limits assumed): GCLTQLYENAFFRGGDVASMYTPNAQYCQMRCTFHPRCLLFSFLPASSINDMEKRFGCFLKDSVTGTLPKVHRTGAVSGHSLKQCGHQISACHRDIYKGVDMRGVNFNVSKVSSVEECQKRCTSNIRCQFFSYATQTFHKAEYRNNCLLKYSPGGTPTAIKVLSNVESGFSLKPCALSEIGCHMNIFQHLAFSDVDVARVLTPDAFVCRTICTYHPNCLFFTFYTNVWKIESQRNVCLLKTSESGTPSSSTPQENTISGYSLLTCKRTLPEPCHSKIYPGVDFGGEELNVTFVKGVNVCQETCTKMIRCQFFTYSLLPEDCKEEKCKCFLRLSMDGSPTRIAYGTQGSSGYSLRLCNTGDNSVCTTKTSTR
Description: Plasma Kallikrein Assay. It is filed as biochemical. Particulars: purified Human plasma kallikrein 0.5 nM, substrate Acetyl-K-P-R-AFC; read-out: PKal IC50. As to the method: The effectiveness of a compound of the present invention as an inhibitor of plasma kallikrein can be determined using a relevant purified serine protease, and an appropriate synthetic substrate. The rate of hydrolysis of the chromogenic or fluorogenic substrate by the relevant serine protease was measured both in the absence and presence of compounds of the present invention. Assays were conducted at rt or at 37° C. […] A decrease in the rate of fluorescence change in the presence of inhibitor is indicative of enzyme inhibition. Such methods are known to one skilled in the art. The results of this assay are expressed as the half-maximal inhibitory concentrations (IC50), or the inhibitory constant, Ki.
Plasma kallikrein determinations were made in 50 mM HEPES buffer at pH 7.4 containing 150 mM NaCl, 5 mM CaCl2), and 0.1% PEG 8000 (polyethylene glycol; Fisher Scientific). Determinations were made using purified Human plasma kallikrein at a final concentration of 0.5 nM (Enzyme Research Laboratories) and the synthetic substrate, Acetyl-K-P-R-AFC (Sigma #C6608) at a concentration of […].
Times required to achieve equilibration between enzyme and inhibitor were determined in control experiments. […] IC50 was determined by inflection point from a four parameter logistic curve fit. Ki was calculated using the Cheng Prusoff equation, Ki=IC50/(1+([S]/Km)).
For `CC(c1ccccc1)n1cc(C(=O)N2CCC[C@@]3(C2)OC(=O)Nc2ccc(Cl)c(F)c23)cn1` (single isomer, unassigned) [Example 23], the IC50 worked out at 0.046 µM.

As for `CC(c1ccccc1)n1cc(C(=O)N2CCC[C@@]3(C2)OC(=O)Nc2ccc(Cl)c(F)c23)cn1` (single isomer, unassigned) [Example 24], the 50% inhibitory concentration (IC50) came to 0.0383 µM.

As to `C[C@H](c1cccc(Cl)c1)n1cc(C(=O)N2CCC[C@@]3(C2)OC(=O)Nc2ccc(Cl)c(F)c23)cn1` (single isomer, unassigned) [Example 28], the IC50 amounted to 0.0104 µM.

Consider `CCC(c1ccc2ncncc2c1)n1cc(C(=O)N2CCC[C@@]3(C2)OC(=O)Nc2ccc(Cl)c(F)c23)cn1` (single isomer, unassigned) [Example 41], for which the IC50 turned out to be 0.0338 µM.

Regarding `CC[C@@H](c1ccc(F)cc1)c1nnc(C(=O)N2CCC[C@@]3(C2)OC(=O)Nc2ccc(Cl)c(F)c23)[nH]1` (single isomer, unassigned) [Example 84], the IC50 was found to be 0.0045 µM.

For `O=C1Nc2ccc(Cl)c(F)c2[C@@]2(CCCN(C(=O)C3(F)CCN(Cc4ccccc4)C3)C2)O1` (single isomer, unassigned) [Example 131, (R)-1′-((S or R)-1-Benzyl-3-fluoropyrrolidine-3-carbonyl)-6-chloro-5-fluorospiro[benzo[d][1,3]oxazine-4,3′-piperidin]-2(1H)-one], the IC50 was 0.0094 µM.

`O=C1Nc2ccc(Cl)c(F)c2[C@]2(CCN(C(=O)C3CCN(Cc4ccc(Cn5ccccc5=O)cc4)C3)C2)O1` (single isomer, unassigned) [Example 136]: the IC50 amounted to 0.0432 µM.

Regarding `O=C1Nc2ccc(Cl)c(F)c2[C@]2(CCN(C(=O)C3CCN(Cc4ccc(Cn5ccccc5=O)cc4)C3)C2)O1` (single isomer, unassigned) [Example 137], the IC50 was found to be 0.031 µM.

Turning to `O=C1Nc2ccc(Cl)c(F)c2[C@@]2(CCCN(C(=O)c3cnn(Cc4ccc(F)c(F)c4)c3)C2)O1` [Example 4, (R)-6-Chloro-1′-(1-(3,4-difluorobenzyl)-1H-pyrazole-4-carbonyl)-5-fluorospiro[benzo[d][1,3]oxazine-4,3′-piperidin]-2(1H)-one], the IC50 stood at 0.02 µM.

In the case of `O=C1Nc2ccc(Cl)c(F)c2[C@@]2(CCCN(C(=O)c3cnn(Cc4cccc(C(F)(F)F)c4)c3)C2)O1` [Example 5, (R)-6-Chloro-5-fluoro-1′-(1-(3-(trifluoromethyl)benzyl)-1H-pyrazole-4-carbonyl)spiro[benzo[d][1,3]oxazine-4,3′-piperidin]-2(1H)-one], the IC50 stood at 0.0231 µM.

For the molecule `O=C1Nc2ccc(Cl)c(F)c2[C@@]2(CCCN(C(=O)c3cnn(Cc4ccc(F)c(Cl)c4)c3)C2)O1` [Example 6, (R)-6-Chloro-1′-(1-(3-chloro-4-fluorobenzyl)-1H-pyrazole-4-carbonyl)-5-fluorospiro[benzo[d][1,3]oxazine-4,3′-piperidin]-2(1H)-one], the IC50 came out at 0.008 µM.

`O=C1Nc2ccc(Cl)c(F)c2[C@@]2(CCCN(C(=O)c3cnn(Cc4ccc(F)c(N5CCC5)c4)c3)C2)O1` [Example 8, (R)-1′-(1-(3-(Azetidin-1-yl)-4-fluorobenzyl)-1H-pyrazole-4-carbonyl)-6-chloro-5-fluorospiro[benzo[d][1,3]oxazine-4,3′-piperidin]-2(1H)-one]: the IC50 came to 0.0341 µM.

As for `O=C1Nc2ccc(Cl)c(F)c2[C@@]2(CCCN(C(=O)c3cnn(Cc4cccc(C5CC5)c4)c3)C2)O1` [Example 10, (R)-6-Chloro-1′-(1-(3-cyclopropylbenzyl)-1H-pyrazole-4-carbonyl)-5-fluorospiro[benzo[d][1,3]oxazine-4,3′-piperidin]-2(1H)-one], the IC50 came to 0.0268 µM.

For `O=C1Nc2ccc(Cl)c(F)c2[C@@]2(CCCN(C(=O)c3cnn(Cc4cncc(Cl)c4)c3)C2)O1` [Example 12, (R)-6-Chloro-1′-(1-((5-chloropyridin-3-yl)methyl)-1H-pyrazole-4-carbonyl)-5-fluorospiro[benzo[d][1,3]oxazine-4,3′-piperidin]-2(1H)-one], the IC50 was determined as 0.0264 µM.

Consider `COc1ccc(Cl)cc1Cn1cc(C(=O)N2CCC[C@@]3(C2)OC(=O)Nc2ccc(Cl)c(F)c23)cn1` [Example 13, (R)-6-Chloro-1′-(1-(5-chloro-2-methoxybenzyl)-1H-pyrazole-4-carbonyl)-5-fluorospiro[benzo[d][1,3]oxazine-4,3′-piperidin]-2(1H)-one], for which the IC50 was determined as 0.0376 µM.

On to `O=C1Nc2ccc(Cl)c(F)c2[C@@]2(CCCN(C(=O)c3cnn(Cc4noc5ccccc45)c3)C2)O1` [Example 17, (R)-1′-(1-(Benzo[d]isoxazol-3-ylmethyl)-1H-pyrazole-4-carbonyl)-6-chloro-5-fluorospiro[benzo[d][1,3]oxazine-4,3′-piepridin]-2(1H)-one], for which the IC50 was 0.0378 µM.

Take `Cc1nc(Cn2cc(C(=O)N3CCC[C@@]4(C3)OC(=O)Nc3ccc(Cl)c(F)c34)cn2)sc1C` [Example 18, (R)-6-Chloro-1′-(1-((4,5-dimethylthiazol-2-yl)methyl)-1H-pyrazole-4-carbonyl)-5-fluorospiro[benzo[d][1,3]oxazine-4,3′-piperidin]-2(1H)-one]: the half-maximal inhibitory concentration (IC50) came to 0.0504 µM.

As to `O=C1Nc2ccc(Cl)c(F)c2[C@@]2(CCCN(C(=O)c3cnn(Cc4cnc5ccccn45)c3)C2)O1` [Example 19, (R)-6-Chloro-5-fluoro-1′-(1-(imidazo[1,2-a]pyridin-3-ylmethyl)-1H-pyrazole-4-carbonyl)spiro[benzo[d][1,3]oxazine-4,3′-piperidin]-2(1H)-one], the IC50 was 0.027 µM.

Take `CC1CN(C(=O)c2cnn(Cc3ccccc3)c2)C[C@]2(C1)OC(=O)Nc1ccc(Cl)c(F)c12` (stereo partly drawn) [Example 20, (4R)-1′-(1-Benzyl-1H-pyrazole-4-carbonyl)-6-chloro-5-fluoro-5′-methylspiro[benzo[d][1,3]oxazine-4,3′-piperidin]-2(1H)-one]: the IC50 was determined as 0.0281 µM.

With `CC1(C)CN(C(=O)c2cnn(Cc3ccccc3)c2)C[C@]2(C1)OC(=O)Nc1ccc(Cl)c(F)c12` [Example 21, (R)-1′-(1-Benzyl-1H-pyrazole-4-carbonyl)-6-chloro-5-fluoro-5′,5′-dimethylspiro[benzo[d][1,3]oxazine-4,3′-piperidin]-2(1H)-one], the IC50 turned out to be 0.0121 µM.

`C[C@@H](c1cccc(Cl)c1)n1cc(C(=O)N2CCC[C@@]3(C2)OC(=O)Nc2ccc(Cl)c(F)c23)cn1` [Example 27, (R)-6-Chloro-1′-(1-((S)-1-(3-chlorophenyl)ethyl)-1H-pyrazole-4-carbonyl)-5-fluorospiro[benzo[d][1,3]oxazine-4,3′-piperidin]-2(1H)-one]: the IC50 was found to be 0.0109 µM.

For `N#Cc1ccc(Cn2cc(C(=O)N3CCC[C@@]4(C3)OC(=O)Nc3ccc(Cl)c(F)c34)cn2)cc1Cl` [Example 47, (R)-2-Chloro-4-((4-(6-chloro-5-fluoro-2-oxo-1,2-dihydrospiro[benzo[d][1.3]oxazine-4,3′-piperidine]-1′-carbonyl)-1H-pyrazol-1-yl)methyl)benzonitrile], the IC50 was found to be 0.0271 µM.

Regarding `O=C1Nc2ccc(Cl)c(F)c2[C@@]2(CCCN(C(=O)c3cnn(Cc4cccc(C5CC5)c4)c3)C2)O1` [Example 48, (R)-6-Chloro-1′-(1-(3-cyclopropylbenzyl)-1H-pyrazole-4-carbonyl)-5-fluorospiro[benzo[d][1,3]oxazine-4,3′-piperidin]-2(1H)-one], the IC50 was 0.0326 µM.
